Here are results for one compound from patent US9157908B2, “Chitosan-alginate scaffold cell culture system and related methods” (University of Washington through its Center for …, priority 2011, dated 2015).

Broadly, the viability is a read-out of living cells in per cent, often relative to untreated cells.

For data set [1] the following is noted: cited from earlier work.
The next data set relates to PLC/PRF/5 (PLC) cells. The data set is described as follows: Cellular response to doxorubicin, cell viability by Alamar Blue assay. In kind it is cell-based, human. Particulars: 72 hours post treatment. As to the method: (§1) Proliferation of cells cultured on 2D wells, Matrigel matrix, and CA scaffolds was determined using the Alamar Blue assay following the manufacturer's protocol. Briefly, cells cultured on 2D wells and 3D scaffolds were washed with D-PBS before adding 1 mL of Alamar Blue solution (10% Alamar Blue in fully supplemented phenol red free DMEM or MEM) to each well.
(§2) For human hepatocellular carcinoma cells, after 2 hrs the Alamar Blue solution was transferred to a 96-well plate to obtain fluorescent values on a SpectraMax M2 microplate reader (Molecular Devices, Sunnyvale, Calif.) at 550 nm excitation, 590 nm emission. Standard curves were generated by seeding cells counted using a hemocytometer onto cell culture materials in triplicate, and performing Alamar Blue assay to generate a plot of linear regression of fluorescent values vs. cell number for each material. The cell number in an experimental sample was calculated based on the standard curve. No background fluorescence was generated by CA scaffolds. Cells were again washed with D-PBS to remove Alamar Blue solution and fresh fully-supplemented media were added to each well.
(§3) For human hepatocellular carcinoma cell-containing scaffolds, after 10 days of culture, media from cell cultures were replaced with 1 mL fully supplemented cell culture media containing various concentrations of doxorubicin. Cells were induced with doxorubicin containing media for 24 h, after which media was replaced with standard fully supplemented cell culture media. Cell viability was assessed using the Alamar Blue assay following the manufacturer's protocol as described above. LD50 was estimated via a polynomial approximation.
Background: The colour change of resazurin is a common sign of viable cells or microbes.

In the next data set the test system is HepG2 cells. The description is as above. In kind it is cell-based, human. As to conditions: for LD50 for doxorubicin: 72 hours post treatment; for viability at 1 µM: Homo sapiens, read-out: viability relative to untreated cells. Here is the method:
as §1, §2, §3

Read-outs that look alike come from different tables or passages of the source.

Regarding `COc1cccc2c1C(=O)c1c(O)c3c(c(O)c1C2=O)C[C@@](O)(C(=O)CO)C[C@@H]3O[C@H]1C[C@H](N)[C@H](O)[C@H](C)O1` [doxorubicin], the clearance from plasma result in data set [1] (48 hours post treatment) is “nearly complete clearance”. For the same compound, the peak plasma concentration entry in data set [1] (standard dosing schemes, minutes after treatment) is listed as “approximately 15 μM”. For the same compound, the figures for the LD50 of doxorubicin with PLC/PRF/5 (PLC) cells (PLC cells CA cultured), with PLC/PRF/5 (PLC) cells (PLC cells Matrigel cultured) and with PLC/PRF/5 (PLC) cells (PLC cells cultured on 2D surfaces) were 4 ± 1.4 µM, 3 ± 1.1 µM and 0.2 ± 0.13 µM, respectively. Besides, the LD50 for doxorubicin in the data set with HepG2 cells (HepG2 cells cultured in 2D substrate) is 0.45 ± 0.18 µM; with HepG2 cells (HepG2 cells in CA), 13 ± 1.7 µM; in the data set with HepG2 cells (HepG2 cells in Matrigel) it was 7 ± 2.2 µM. For the same compound, the viability at 1 µM with HepG2 cells (HepG2, 48 h) is 86.7 ± 2.4%; in the data set on HepG2 cells (HepG2, 72 h), 88.6 ± 2.75%.
